Reference: patent US4486419A, “5,2',3',4',4",6"-Hexadeoxykanamycin and its 1-N-acylated derivative” (Zaidan Hojin Biseibutsu Kagaku Kenkyu Kai, priority 1982, dated 1984)
Values after ≈ are worked out from the molar mass of the structure shown.

What was measured:
Assay type in all cases: cell-based
[1] = system: Klebsiella pneumoniae PCI 602; details: PCI602, nutrient agar, 37° C., 18 hours
[2] = system: Pseudomonas maltophilia GN907; details: Stenotrophomonas maltophilia, nutrient agar, 37° C., 18 hours
[3] = system: Escherichia coli K-12 C 600R135; assay: microbe, parasite or virus in culture; details: K12C600R135, 18 h
[4] = system: Escherichia coli K-12 LA 290 R64; assay: microbe, parasite or virus in culture; details: K12LA290R64, 18 h
[5] = system: Escherichia coli K-12 R 388; details: K12R388, 18 h
[6] = system: Escherichia coli K-12 ML 1630; details: K12ML1630, nutrient agar, 37° C., 18 hours
[7] = system: Escherichia coli JR66/W677; details: JR66/W677, 18 h
[8] = system: Escherichia coli K-12 ML 1410; details: K12ML1410, nutrient agar, 37° C., 18 hours
Proteus rettgeri GN466 = details: Providencia rettgeri, nutrient agar, 37° C., 18 hours
Salmonella typhi T-63 = details: Salmonella enterica, 18 h
[9] = system: Escherichia coli K-12 ML 1410 R81; assay: microbe, parasite or virus in culture; details: 18 h
Escherichia coli JR255 = assay: microbe, parasite or virus in culture; details: JR255, 18 h
[10] = system: kanamycin-resistant bacteria; assay: antibacterial activity against kanamycin-resistant bacteria (in words); details: even with the kanamycin-resistant bacteria
bacterial strains = assay: antibacterial activity (in words)

SMILES	MIC [1] [mg/L]	MIC [2] [mg/L]	MIC [3] [mg/L]	MIC [4] [mg/L]	MIC [5] [mg/L]	MIC [6] [mg/L]	MIC [7] [mg/L]	MIC [8] [mg/L]	MIC (Proteus rettgeri GN466) [mg/L]	MIC (Salmonella typhi T-63) [mg/L]	MIC [9] [mg/L]	MIC (Escherichia coli JR255) [mg/L]	antibacterial activity compared with amikacin [10]	antibacterial activity (bacterial strains)
NCC[C@H](O)C(=O)N[C@@H]1C[C@H](N)[C@@H](O[C@H]2O[C@H](CN)[C@@H](O)[C@H](O)[C@H]2O)[C@H](O)[C@H]1O[C@H]1O[C@H](CO)[C@@H](O)[C@H](N)[C@H]1O [Amikacin, 1-N-[(S)-4-amino-2-hydroxybutyryl]kanamycin A, reference compound]	0.78 (≈ 1.33 µM)	> 100	0.78 (≈ 1.33 µM)	1.56 (≈ 2.66 µM)	0.39 (≈ 0.666 µM)	3.13 (≈ 5.34 µM)	3.13 (≈ 5.34 µM)	1.56 (≈ 2.66 µM)	0.78 (≈ 1.33 µM)	0.39 (≈ 0.666 µM)	1.56 (≈ 2.66 µM)	0.78 (≈ 1.33 µM)		
C[C@@H]1C[C@H](N)[C@@H](O)[C@@H](O[C@@H]2C[C@H](O[C@@H]3CCC[C@@H](CN)O3)[C@@H](N)C[C@H]2NC(=O)[C@@H](O)CCN)O1 [Hexadeoxyamikacin, 1-N-[(S)-4-amino-2-hydroxybutyryl]-5,2',3',4',4",6"-hexadeoxykanamycin]	1.56 (≈ 3.19 µM)	> 100	1.56 (≈ 3.19 µM)	3.13 (≈ 6.39 µM)	0.78 (≈ 1.59 µM)	3.13 (≈ 6.39 µM)	3.13 (≈ 6.39 µM)	3.13 (≈ 6.39 µM)	1.56 (≈ 3.19 µM)	0.78 (≈ 1.59 µM)	3.13 (≈ 6.39 µM)	0.78 (≈ 1.59 µM)	antibacterial activity as high as that of amikacin	
C[C@@H]1C[C@H](N)[C@@H](O)[C@@H](O[C@@H]2C[C@H](O[C@@H]3CCC[C@@H](CN)O3)[C@@H](N)C[C@H]2N)O1 [Hexadeoxykanamycin, 5,2',3',4',4",6"-hexadeoxykanamycin]	1.56 (≈ 4.02 µM)	> 100	1.56 (≈ 4.02 µM)	25 (≈ 64.3 µM)	1.56 (≈ 4.02 µM)	25 (≈ 64.3 µM)	> 100	3.13 (≈ 8.06 µM)	1.56 (≈ 4.02 µM)	0.78 (≈ 2.01 µM)	25 (≈ 64.3 µM)	1.56 (≈ 4.02 µM)		antibacterial activity as high as that of the parent kanamycin A
